From PubChem BioAssay AID1963837 (Molecular Pharmacology Branch, DTP, NCI, 2024)

System: 843126-344-R-J1-PDC complex spheroid viability
Assay: Anticancer human tumor 843126-344-R-J1-PDC patient-derived melanoma cell line growth inhibition [POLQ]
Details: for IC50: curve of first compound; for viability, T/C: stronger effect = lower value
Procedure, shortened: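 PDC + HUVEC + MSC complex spheroids; POLQ inhibitors ± partner drugs; top conc. at/near clinical Cmax, else 10 microM (SN-38 1 microM), half-log dilutions; 37 degrees C, 5% CO2.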

[1] = second compound 0.0316 µM, first compound 0.0316 µM
[2] = second compound 0.0316 µM, first compound 0.1 µM
[3] = second compound 0.0316 µM, first compound 0.316 µM
[4] = second compound 0.0316 µM, first compound 1 µM
[5] = second compound 0.1 µM, first compound 0.0316 µM
[6] = second compound 0.1 µM, first compound 0.1 µM
[7] = second compound 0.1 µM, first compound 0.316 µM
[8] = second compound 0.1 µM, first compound 1 µM
[9] = second compound 0.316 µM, first compound 0.0316 µM
[10] = second compound 0.316 µM, first compound 0.1 µM
[11] = second compound 0.316 µM, first compound 0.316 µM
[12] = second compound 0.316 µM, first compound 1 µM
[13] = second compound 1 µM, first compound 0.0316 µM
[14] = second compound 1 µM, first compound 0.1 µM
[15] = second compound 1 µM, first compound 0.316 µM
[16] = second compound 1 µM, first compound 1 µM
[17] = second compound 3.16 µM, first compound 0.0316 µM
[18] = second compound 3.16 µM, first compound 0.1 µM
[19] = second compound 3.16 µM, first compound 0.316 µM
[20] = second compound 3.16 µM, first compound 1 µM
[21] = second compound 10 µM, first compound 0.0316 µM
[22] = second compound 10 µM, first compound 0.1 µM
[23] = second compound 10 µM, first compound 0.316 µM
[24] = second compound 10 µM, first compound 1 µM
[25] = second compound 0.0316 µM, first compound 3.16 µM
[26] = second compound 0.0316 µM, first compound 10 µM
[27] = second compound 0.1 µM, first compound 3.16 µM
[28] = second compound 0.1 µM, first compound 10 µM
[29] = second compound 0.316 µM, first compound 3.16 µM
[30] = second compound 0.316 µM, first compound 10 µM
[31] = second compound 1 µM, first compound 3.16 µM
[32] = second compound 1 µM, first compound 10 µM
[33] = second compound 3.16 µM, first compound 3.16 µM
[34] = second compound 3.16 µM, first compound 10 µM
[35] = second compound 10 µM, first compound 3.16 µM
[36] = second compound 10 µM, first compound 10 µM
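Wherever viability, T/C is given: spheroids exposed to drugs for seven days before readout.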

With `C=CCn1c(=O)c2cnc(Nc3ccc(N4CCN(C)CC4)cc3)nc2n1-c1cccc(C(C)(C)O)n1` + Cc1cccc(N(C)C(=O)C2C(O)CCN2c2nc(C)cc(C(F)(F)F)c2C#N)c1 as the compound, how does the IC50 (second compound 0.0316 µM) read?
Its IC50 is greater than 1000 nM.

What about the IC50 (second compound 0.1 µM) of the same compound?
The IC50 was greater than 1000 nM.

And the IC50 (second compound 0.316 µM)?
Its IC50 is greater than 1000 nM.

What about the IC50 (second compound 1 µM) of the same compound?
Its IC50 is greater than 1000 nM.

What about the IC50 (second compound 3.16 µM) of the same compound?
The IC50 was greater than 1000 nM.

And the IC50 (second compound 10 µM)?
The IC50 was greater than 1000 nM.

And the viability, T/C (second compound 0.0316 µM, first compound 0.00316 µM)?
The viability, T/C was 108%.

What about the viability, T/C (second compound 0.0316 µM, first compound 0.01 µM) of the same compound?
Its viability, T/C is 88.7%.

What about the viability, T/C [1] of the same compound?
Its viability, T/C is 95.2%.

And the viability, T/C [2]?
The viability, T/C was 111%.

And the viability, T/C [3]?
Its viability, T/C is 105%.

What about the viability, T/C [4] of the same compound?
Its viability, T/C is 81.8%.

What about the viability, T/C (second compound 0.1 µM, first compound 0.00316 µM) of the same compound?
The viability, T/C was 111%.

And the viability, T/C (second compound 0.1 µM, first compound 0.01 µM)?
The viability, T/C was 113%.

What about the viability, T/C [5] of the same compound?
Its viability, T/C is 103%.

And the viability, T/C [6]?
The viability, T/C was 113%.

What about the viability, T/C [7] of the same compound?
The viability, T/C was 95.9%.

What about the viability, T/C [8] of the same compound?
Its viability, T/C is 80.8%.

What about the viability, T/C (second compound 0.316 µM, first compound 0.00316 µM) of the same compound?
Its viability, T/C is 101%.

What about the viability, T/C (second compound 0.316 µM, first compound 0.01 µM) of the same compound?
Its viability, T/C is 103%.

And the viability, T/C [9]?
The viability, T/C was 108%.

And the viability, T/C [10]?
Its viability, T/C is 93.3%.

What about the viability, T/C [11] of the same compound?
The viability, T/C was 89.3%.

What about the viability, T/C [12] of the same compound?
The viability, T/C was 73.7%.

What about the viability, T/C (second compound 1 µM, first compound 0.00316 µM) of the same compound?
Its viability, T/C is 86%.

And the viability, T/C (second compound 1 µM, first compound 0.01 µM)?
Its viability, T/C is 102%.

And the viability, T/C [13]?
The viability, T/C was 111%.

What about the viability, T/C [14] of the same compound?
The viability, T/C was 99.5%.

And the viability, T/C [15]?
Its viability, T/C is 122%.

And the viability, T/C [16]?
The viability, T/C was 86%.

What about the viability, T/C (second compound 3.16 µM, first compound 0.00316 µM) of the same compound?
Its viability, T/C is 103%.

And the viability, T/C (second compound 3.16 µM, first compound 0.01 µM)?
The viability, T/C was 105%.

What about the viability, T/C [17] of the same compound?
The viability, T/C was 104%.

What about the viability, T/C [18] of the same compound?
Its viability, T/C is 112%.

What about the viability, T/C [19] of the same compound?
Its viability, T/C is 113%.

And the viability, T/C [20]?
The viability, T/C was 89.3%.

What about the viability, T/C (second compound 10 µM, first compound 0.00316 µM) of the same compound?
The viability, T/C was 105%.

And the viability, T/C (second compound 10 µM, first compound 0.01 µM)?
The viability, T/C was 89%.

And the viability, T/C [21]?
Its viability, T/C is 94.3%.

What about the viability, T/C [22] of the same compound?
Its viability, T/C is 94.1%.

And the viability, T/C [23]?
The viability, T/C was 102%.

And the viability, T/C [24]?
Its viability, T/C is 83.6%.

Which results are given for `CC(C)n1c(=O)n(C)c2cnc3cc(F)c(-c4ccc(OCCCN5CCCCC5)nc4)cc3c21` + Cc1cccc(N(C)C(=O)C2C(O)CCN2c2nc(C)cc(C(F)(F)F)c2C#N)c1?
IC50 (second compound 0.0316 µM): > 10000 nM; IC50 (second compound 0.1 µM): > 10000 nM; IC50 (second compound 0.316 µM): > 10000 nM; IC50 (second compound 1 µM): > 10000 nM; IC50 (second compound 3.16 µM): > 10000 nM; IC50 (second compound 10 µM): > 10000 nM; viability, T/C [1]: 100%; viability, T/C [2]: 87.7%; viability, T/C [3]: 97.2%; viability, T/C [4]: 78.7%; viability, T/C [25]: 93%; viability, T/C [26]: 60.5%; viability, T/C [5]: 90.1%; viability, T/C [6]: 104%; viability, T/C [7]: 72.7%; viability, T/C [8]: 83.1%; viability, T/C [27]: 78.1%; viability, T/C [28]: 67.1%; viability, T/C [9]: 92%; viability, T/C [10]: 96.9%; viability, T/C [11]: 88.7%; viability, T/C [12]: 89.8%; viability, T/C [29]: 87.2%; viability, T/C [30]: 55.1%; viability, T/C [13]: 98.3%; viability, T/C [14]: 78%; viability, T/C [15]: 86.7%; viability, T/C [16]: 78.5%; viability, T/C [31]: 81%; viability, T/C [32]: 64.3%; viability, T/C [17]: 94.8%; viability, T/C [18]: 84.5%; viability, T/C [19]: 106%; viability, T/C [20]: 99.1%; viability, T/C [33]: 91.9%; viability, T/C [34]: 73.1%; viability, T/C [21]: 93.4%; viability, T/C [22]: 90.2%; viability, T/C [23]: 89.1%; viability, T/C [24]: 77.9%; viability, T/C [35]: 81.9%; viability, T/C [36]: 61.2%

How did the IC50 (second compound 0.0316 µM) turn out when `CC1COCCN1c1cc(-c2ccnn2C)c2ccnc(-c3ccn[nH]3)c2n1` (stereo unspecified) + Cc1cccc(N(C)C(=O)C2C(O)CCN2c2nc(C)cc(C(F)(F)F)c2C#N)c1 was run?
Its IC50 is 1970 nM.

What about the IC50 (second compound 0.1 µM) of the same compound?
The IC50 was 1300 nM.

And the IC50 (second compound 0.316 µM)?
The IC50 was 2070 nM.

What about the IC50 (second compound 1 µM) of the same compound?
Its IC50 is 1580 nM.

What about the IC50 (second compound 3.16 µM) of the same compound?
The IC50 was 1660 nM.

And the IC50 (second compound 10 µM)?
Its IC50 is 1870 nM.

And the viability, T/C [1]?
Its viability, T/C is 85.6%.

What about the viability, T/C [2] of the same compound?
Its viability, T/C is 77.7%.

What about the viability, T/C [3] of the same compound?
Its viability, T/C is 63.8%.

What about the viability, T/C [4] of the same compound?
Its viability, T/C is 55.1%.

And the viability, T/C [25]?
The viability, T/C was 50.3%.

And the viability, T/C [26]?
The viability, T/C was 32.7%.

What about the viability, T/C [5] of the same compound?
The viability, T/C was 80.9%.

And the viability, T/C [6]?
Its viability, T/C is 67.5%.

And the viability, T/C [7]?
Its viability, T/C is 64.2%.

And the viability, T/C [8]?
Its viability, T/C is 52.6%.

What about the viability, T/C [27] of the same compound?
The viability, T/C was 42.8%.

What about the viability, T/C [28] of the same compound?
The viability, T/C was 28.4%.

And the viability, T/C [9]?
The viability, T/C was 87.2%.

And the viability, T/C [10]?
The viability, T/C was 92.2%.

What about the viability, T/C [11] of the same compound?
Its viability, T/C is 64.7%.

What about the viability, T/C [12] of the same compound?
Its viability, T/C is 63.9%.

What about the viability, T/C [29] of the same compound?
Its viability, T/C is 43%.

And the viability, T/C [30]?
Its viability, T/C is 36.7%.

What about the viability, T/C [13] of the same compound?
The viability, T/C was 88.1%.

What about the viability, T/C [14] of the same compound?
The viability, T/C was 85%.

And the viability, T/C [15]?
Its viability, T/C is 68.8%.

And the viability, T/C [16]?
The viability, T/C was 55.6%.

What about the viability, T/C [31] of the same compound?
Its viability, T/C is 42.6%.

And the viability, T/C [32]?
The viability, T/C was 33.3%.

What about the viability, T/C [17] of the same compound?
The viability, T/C was 89%.

What about the viability, T/C [18] of the same compound?
Its viability, T/C is 82.2%.

What about the viability, T/C [19] of the same compound?
Its viability, T/C is 68.7%.

What about the viability, T/C [20] of the same compound?
Its viability, T/C is 54.2%.

What about the viability, T/C [33] of the same compound?
Its viability, T/C is 44.8%.

And the viability, T/C [34]?
The viability, T/C was 35%.

And the viability, T/C [21]?
The viability, T/C was 82.5%.

What about the viability, T/C [22] of the same compound?
Its viability, T/C is 83.5%.

And the viability, T/C [23]?
Its viability, T/C is 66%.

And the viability, T/C [24]?
The viability, T/C was 57.6%.

What about the viability, T/C [35] of the same compound?
The viability, T/C was 45.1%.

What about the viability, T/C [36] of the same compound?
Its viability, T/C is 33.1%.
